US20200046856A1, “METHODS FOR IDENTIFYING MBLAC1-DEPENDENT MOLECULAR NETWORKS” (Florida Atlantic University Board of Trustees, priority 2018, published 2020)
Entries after “also recorded” stand apart in the source; their conditions may differ.

Tests used:
mouse MBLAC1 = molecular target: T1, mouse MBLAC1 (Mus musculus, UniProt Q8BWY4); assay: Backscattering Interferometry (BSI) binding assay, lysates of T-REx cells expressing mouse MBLAC1; conditions: for BSI binding signal: TET induced vs non-induced T-REx lysates, mouse MBLAC1, 5 μM and 50 μM
T1 construct: expressed in transfected cells; host or cells: HEK Flp-In T-REx-293 cells, pcDNA5/FRT/TO, TET-induced, lysate
T1 sequence (Q8BWY4 1-260): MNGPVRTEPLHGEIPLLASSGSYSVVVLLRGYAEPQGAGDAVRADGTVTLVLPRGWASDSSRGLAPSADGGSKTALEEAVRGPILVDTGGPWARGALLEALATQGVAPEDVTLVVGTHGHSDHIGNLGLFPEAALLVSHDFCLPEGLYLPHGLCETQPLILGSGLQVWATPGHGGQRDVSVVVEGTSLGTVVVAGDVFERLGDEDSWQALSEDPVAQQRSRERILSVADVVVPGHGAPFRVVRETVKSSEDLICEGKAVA
Text: Although the pulldown approach provided initial evidence of Cef interactions with MBLAC1, the efficiency of competition was lower than expected, based on prior studies reporting the in vitro potency of Cef for GLT-1 induction. It was reasoned that steric hindrance could limit high-affinity interactions of MBLAC1 with Cef-conjugated beads. As radiolabeled Cef was unavailable, a non-isotopic approach that could examine Cef/MBLAC1 interactions without ligand immobilization was sought. Backscattering interferometry is a sensitive approach that can detect both kinetic and equilibrium associations of unlabeled, small molecule interactions with unmodified target proteins (Bornhop et al., Science vol. 317, 1732-1736, 2007). […] BSI signals were eliminated by heat denaturation of extracts prior to analysis, consistent with Cef binding as arising from a proteinaceous species versus TET used to induce MBLAC1 expression.
To assess the binding of unlabeled Cef with MBLAC1 in cell and tissue lysates, BSI was utilized. A BSI instrument was assembled and employed (Kussrow et al., Anal Chem 84, 779-792, 2012). Briefly, BSI, using a semi-circular chip, a helium-neon laser, and CCD camera, allows for high-sensitivity, refractive index (RI) sensing. The RI signal is obtained by isolating shifts in the backscattered fringes by Fourier analysis. RI changes are quantified by comparing fringe shifts between test and reference samples.
(§1) Lysates for BSI contained Cef at concentrations of 0 μM, 5 μM, and 50 μM and concentrations of either 300 μg/mL (mouse cell lysates) or 100 μg/mL (human cell lysates and mouse brain lysates) protein. Samples were incubated on ice for 1 hr prior to analysis to favor equilibrium binding conditions. To obtain BSI signals, the sample with 0 μM Cef was injected into the channel in a stop-flow manner using a vacuum and allowed to reach temperature and pressure equilibrium (˜10 sec) at which point the phase value (BSI signal) was measured for 20 sec. Specific BSI signal was determined by subtracting Cef only signal from Cef-lysate signals. […]

human MBLAC1 = molecular target: T2, human MBLAC1 (Homo sapiens, UniProt A4D2B0); assay: Backscattering Interferometry (BSI) binding assay, lysates of T-REx cells expressing human MBLAC1; conditions: TET induced vs non-induced T-REx lysates, 5 μM and 50 μM
T2 construct: expressed in transfected cells; host or cells: HEK Flp-In T-REx-293 cells, pcDNA5/FRT/TO, TET-induced, lysate
T2 sequence (A4D2B0 1-266): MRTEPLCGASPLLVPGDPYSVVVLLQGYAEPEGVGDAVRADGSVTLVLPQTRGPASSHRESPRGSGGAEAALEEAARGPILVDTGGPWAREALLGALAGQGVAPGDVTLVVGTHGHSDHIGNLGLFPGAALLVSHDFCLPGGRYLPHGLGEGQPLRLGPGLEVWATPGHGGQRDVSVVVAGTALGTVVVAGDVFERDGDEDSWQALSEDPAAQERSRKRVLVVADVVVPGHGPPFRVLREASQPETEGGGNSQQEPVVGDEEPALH
Text: Although the pulldown approach provided initial evidence of Cef interactions with MBLAC1, the efficiency of competition was lower than expected, based on prior studies reporting the in vitro potency of Cef for GLT-1 induction. It was reasoned that steric hindrance could limit high-affinity interactions of MBLAC1 with Cef-conjugated beads. As radiolabeled Cef was unavailable, a non-isotopic approach that could examine Cef/MBLAC1 interactions without ligand immobilization was sought. […]
To assess the binding of unlabeled Cef with MBLAC1 in cell and tissue lysates, BSI was utilized. […] RI changes are quantified by comparing fringe shifts between test and reference samples.
as §1, with “Samples were incubated on ice for 1 hr prior to analysis to favor equilibrium binding conditions.” left out

MBLAC1 [1] = molecular target: T3, MBLAC1 (Mus musculus, UniProt Q8BWY4); assay: BSI binding assay, mouse frontal cortex lysates with and without MBLAC1 immunodepletion
T3 construct: from tissue; host or cells: frontal cortex of wild type C57BL/6J mice, 100,000 x g supernatant
T3 sequence (Q8BWY4 1-260): T1 sequence (Q8BWY4 1-260)
Experimental: To detect endogenous Cef binding and to determine whether MBLAC1 is likely to be responsible for observed interactions, the BSI experiments were repeated using mouse frontal cortex lysates, with and without prior heat denaturation. To determine whether, and to what degree, Cef binding signals derive from MBLAC1, BSI studies were performed on lysates that had been immunodepleted of MBLAC1 protein by anti-MBLAC1 antibody (#80). […] These findings support the contention that, under these binding conditions, MBLAC1 is likely the primary species in brain lysates capable of interacting with Cef at high-affinity—that the well-replicated actions Cef in the CNS arise through MBLAC1 interactions.
Wild type C57BL/6J mice (Jackson Labs, Bar Harbor, Me.) were rapidly decapitated and frontal cortex was dissected. […] Supernatants were collected, diluted with 2× lysis buffer (40 mM HEPES, 220 mM KCl, 20 mM NaCl, 4 mM MgCl, 10 mM KH2PO4, 500 μM ZnSO4) and protein concentration determined (BCA Protein Assay, ThermoFisher, Waltham, Mass.). […]
To assess the binding of unlabeled Cef with MBLAC1 in cell and tissue lysates, BSI was utilized. […] RI changes are quantified by comparing fringe shifts between test and reference samples. […]

[2] = test system: MBLAC1 WT and MBLAC1 KO mice; assay: Effect of repeated Cef on cocaine-induced locomotion (open field); type: in vivo, mouse; conditions: 200 mg/kg IP once daily for 10 days, cocaine 10 mg/kg 24 h later, first 30 min
Experimental: Animals: All mice were used in accordance with protocols approved by the Florida Atlantic University Institutional Animal Care and Use Committee. Mice were group-housed on a 12 h/12 h light/dark cycle and given ad libitum access to food and water. Breeding was accomplished with mating of heterozygous males with heterozygous females. Male and female mice 11-13 weeks old at the start of the experiment were used in testing the effects of repeated ceftriaxone on response to cocaine in the open field assay. Data from males and females were combined.
Repeated ceftriaxone treatment/acute cocaine administration: MBLAC1 wild-type (WT, MBLAC1^+/+) and knockout mice (MBLAC1^−/−) were used in this experiment. Mice were injected IP once daily for 10 days with 200 mg/kg ceftriaxone (CEF) or saline. Twenty-four hours following the last CEF injection, mice were injected with 10 mg/kg cocaine or saline followed immediately by testing in open field activity chambers (Med Associates, Fairfax, Vt.) for 60 minutes. Locomotor activity was evaluated by photocells in the X, Y and Z dimensions. Horizontal beam breaks, vertical beam breaks, and repetitive movements were recorded and measures, including distance traveled, vertical rearing and stereotypic counts, were calculated. Data were analyzed in 5 min time bins within session, and for the first 30 min following cocaine injection. Data were analyzed by two-way ANOVA repeated measures, with time bin as the repeated measure, or by two-way ANOVA for 30 min cumulated data. At the end of behavior, mice were euthanized by CO2.
The methods were performed essentially as described in Tallarida et al. Neurosci Lett vol. 556, p. 155-159, 2013.

MBLAC1 [3] = assay: Affinity capture of MBLAC1 with Cef-conjugated Sepharose beads, free Cef competition; conditions: 50 μM free Cef preincubated with MBLAC1 containing extract; n=6

Row | Compound | BSI binding signal (mouse MBLAC1) | Kd (mouse MBLAC1; lysate from mouse MBLAC1 expressing cells, Cef 0.78 μM to 50 μM, r2=0.96, read-out: KD for binding (single site binding equation fit to BSI data)) [nM] | BSI binding signal (human MBLAC1) | BSI binding signal in MBLAC1-immunodepleted mouse frontal cortex lysate (MBLAC1 [1]; immunodepleted with MBLAC1 antibody #80) | BSI binding signal in mouse frontal cortex lysate (MBLAC1 [1]; non-depleted lysate, 5 μM and 50 μM) | Effect of Cef pretreatment on cocaine-induced locomotion in MBLAC1 KO mice [2] | Effect of Cef pretreatment on cocaine-induced locomotion in MBLAC1 WT mice [2] | Effect of Cef pretreatment on cocaine-induced locomotion in MBLAC1 KO mice ([2]; listed as CEF) | Effect of Cef pretreatment on cocaine-induced locomotion in MBLAC1 WT mice ([2]; listed as CEF) | Mean reduction in MBLAC1 binding to immobilized Cef (MBLAC1 [3]) [%]
1 | CO/N=C(\C(=O)N[C@@H]1C(=O)N2C(C(=O)O)=C(CSc3nc(=O)c(=O)[nH]n3C)CS[C@H]12)c1csc(N)n1 [Cef, ceftriaxone] | significant, dose-dependent BSI signals were detected only in induced cell lysates; also recorded: concentration-dependent, heat-sensitive BSI binding signals | 2200 | significant, dose-dependent BSI signals were detected only in induced cell lysates; also recorded: concentration-dependent, heat-sensitive BSI binding signals | the Cef binding signal was abolished; also recorded: eliminated Cef binding activity | shows binding signal with Cef | no ability to attenuate cocaine actions | the locomotor activating effects of cocaine were lost | had no effect on the response to cocaine | completely blocked the effects of cocaine | 52.4±9.3
2 | CC(=O)OCC1=C(C(=O)O)N2C(=O)[C@@H](NC(=O)CCC[C@@H](N)C(=O)O)[C@H]2SC1 [CephC, cephalosporin C] | a significant CephC BSI signal (FIG. 3D) was not seen; also recorded: non-significant reduction in BSI signal |  |  |  |  |  |  |  |  | 
